Laboratory results reported in DBAASP.
Converted amounts (≈) assume the structure as drawn.

Columns and labels:
Assay in all cases: ≥ marks a high value that may be exact or a test limit, other limits are often not marked, values filed in µg/mL are converted to µM
[1] = tested on: Pseudomonas aeruginosa CMCCB 10104
[2] = tested on: Escherichia coli ATCC 25922
[3] = tested on: Staphylococcus aureus ATCC 25923
[4] = tested on: Candida albicans ATCC 2002
[5] = tested on: Staphylococcus epidermidis ATCC 12228
[6] = tested on: Candida parapsilosis ATCC 22019
Escherichia coli B = tested on: Escherichia coli B
Pseudomonas aeruginosa = tested on: Pseudomonas aeruginosa
Staphylococcus aureus = tested on: Staphylococcus aureus
Bacillus subtilis 168 = tested on: Bacillus subtilis 168
Bacillus subtilis = tested on: Bacillus subtilis
Escherichia coli = tested on: Escherichia coli

| Structure (SMILES) | MIC [1] [µM] | MIC [2] [µM] | MIC [3] [µM] | MIC [4] [µM] | MIC (Escherichia coli B) [µM] | MIC (Pseudomonas aeruginosa) [µM] | MIC (Staphylococcus aureus) [µM] | MIC (Bacillus subtilis 168) [µM] | also measured |
| --- | --- | --- | --- | --- | --- | --- | --- | --- | --- |
| CC(C)C[C@H](NC(=O)[C@H](CCC(=O)O)NC(=O)[C@@H]1CCCN1C(=O)[C@H](CCC(=O)O)NC(=O)[C@@H](NC(=O)[C@H](C)NC(=O)[C@H](C)NC(=O)[C@@H](N)CC(=O)O)C(C)C)C(=O)N[C@@H](Cc1ccc(O)cc1)C(=O)N[C@@H](Cc1cnc[nH]1)C(=O)N[C@@H](Cc1c[nH]c2ccccc12)C(=O)NCC(=O)N[C@@H](CCCCN)C(=O)N[C@H](C(=O)N[C@@H](Cc1c[nH]c2ccccc12)C(=O)N[C@@H](CC(C)C)C(=O)N1CCC[C@H]1C(=O)N[C@@H](CC(N)=O)C(=O)O)C(C)C [DAAVEPELYHWGKVWLPN] | ≥ 94.1 | > 94.1 | > 94.1 | ≥ 94.1 | – | – | – | – | – |
| C[C@@H](O)[C@H](NC(=O)[C@H](CO)NC(=O)[C@H](Cc1ccccc1)NC(=O)[C@@H](N)Cc1ccccc1)C(=O)N[C@@H](CO)C(=O)N[C@H]1CSSC[C@@H](C(=O)O)NC(=O)CNC(=O)[C@H](CO)NC(=O)[C@H](CCCN=C(N)N)NC1=O [FFSTSCRSGC] | ≥ 91.4 | > 91.4 | > 91.4 | ≥ 91.4 | – | – | – | – | – |
| CC[C@H](C)[C@H](NC(=O)[C@H](C)NC(=O)CNC(=O)[C@H](CC(C)C)NC(=O)[C@@H](N)Cc1ccccc1)C(=O)N[C@@H](C)C(=O)N[C@@H](CCC(N)=O)C(=O)N[C@@H](C)C(=O)N[C@@H](CC(C)C)C(=O)N[C@H](C(=O)N[C@@H](CO)C(=O)N[C@@H](CC(C)C)C(=O)N[C@@H](CC(C)C)C(=O)NCC(=O)N[C@@H](CCCCN)C(=O)N[C@@H](CC(C)C)C(N)=O)[C@@H](C)O [FLGAIAQALTSLLGKL] | – | > 128 | – | – | – | – | – | – | MIC [5]: 8 µM (≈ 12.9 µg/mL); MIC [6]: ≥ 64 µM |
| CC(C)C[C@H](NC(=O)CNC(=O)[C@@H]1CCCN1C(=O)[C@H](CC(C)C)NC(=O)[C@@H](N)Cc1ccccc1)C(=O)N[C@@H](CCC(=O)O)C(=O)N[C@@H](CS)C(=O)N[C@H](C(=O)N[C@@H](Cc1c[nH]c2ccccc12)C(=O)O)C(C)C [FLPGLECVW] | ≥ 188 | > 188 | > 188 | ≥ 188 | – | – | – | – | – |
| CC[C@H](C)[C@H](NC(=O)[C@H](CO)NC(=O)[C@H](CC(C)C)NC(=O)[C@H](Cc1ccccc1)NC(=O)CN)C(=O)N[C@@H](CC(C)C)C(=O)N[C@@H](CCCCN)C(=O)N[C@@H](CCCCN)C(=O)N[C@H](C(=O)N[C@@H](CC(C)C)C(=O)NCC(=O)N[C@@H](CCCCN)C(=O)N[C@H](C(=O)N[C@@H](CCSC)C(=O)N[C@@H](C)C(=O)N[C@@H](Cc1cnc[nH]1)C(=O)N[C@@H](CCSC)C(=O)N[C@@H](CCCCN)C(N)=O)C(C)C)C(C)C [GFLSILKKVLGKVMAHMK] | – | – | – | – | 1.8 (≈ 3.6 µg/mL) | 14.4 (≈ 28.8 µg/mL) | 4.3 (≈ 8.6 µg/mL) | 1.3 (≈ 2.6 µg/mL) | – |
| CC[C@H](C)[C@H](NC(=O)[C@H](CO)NC(=O)[C@H](CC(C)C)NC(=O)[C@H](Cc1ccccc1)NC(=O)CN)C(=O)N[C@@H](CC(C)C)C(=O)N[C@@H](CCCCN)C(=O)N[C@@H](CCCCN)C(=O)N[C@H](C(=O)N[C@@H](CC(C)C)C(=O)N[C@@H](CCCCN)C(=O)N[C@@H](CCCCN)C(=O)N[C@H](C(=O)N[C@@H](CCSC)C(=O)N[C@@H](C)C(=O)N[C@@H](Cc1cnc[nH]1)C(=O)N[C@@H](CCSC)C(=O)N[C@@H](CCCCN)C(N)=O)C(C)C)C(C)C [GFLSILKKVLKKVMAHMK] | – | – | – | – | 1.8 (≈ 3.73 µg/mL) | 25.3 (≈ 52.4 µg/mL) | 13.8 (≈ 28.6 µg/mL) | 1.4 (≈ 2.9 µg/mL) | – |
| CC[C@H](C)[C@@H]1NC(=O)[C@H](CCCCN)NC(=O)[C@@H](NC(=O)[C@H](CCCCN)NC(=O)[C@H](CC(C)C)NC(=O)[C@H](CC(N)=O)NC(=O)[C@H](CC(=O)O)NC(=O)[C@H](CC(C)C)NC(=O)[C@H](CC(C)C)NC(=O)[C@H](CC(N)=O)NC(=O)CNC(=O)[C@H](C)NC(=O)[C@H](CCSC)NC(=O)[C@H](CC(N)=O)NC(=O)[C@H](CCCCN)NC(=O)[C@H](C)NC(=O)[C@@H](NC(=O)[C@H](CC(N)=O)NC(=O)[C@H](CCCCN)NC(=O)[C@H](C)NC(=O)[C@@H](NC(=O)[C@H](CC(=O)O)NC(=O)[C@H](CCSC)NC(=O)[C@H](Cc2ccccc2)NC(=O)CN)[C@@H](C)O)C(C)C)CSSC[C@@H](C(=O)O)NC(=O)[C@H](C)NC(=O)[C@H](CCCCN)NC(=O)[C@H]([C@@H](C)O)NC1=O [GFMDTAKNVAKNMAGNLLDNLKCKITKAC] | 3.21 (≈ 9.99 µg/mL) | 1.61 (≈ 5 µg/mL) | 0.803 (≈ 2.5 µg/mL) | 0.803 (≈ 2.5 µg/mL) | – | – | – | – | – |
| CC[C@H](C)[C@@H]1NC(=O)[C@H](CCCCN)NC(=O)[C@@H](NC(=O)[C@H](CCCCN)NC(=O)[C@H](CC(C)C)NC(=O)[C@H](CC(N)=O)NC(=O)[C@H](CC(=O)O)NC(=O)[C@H](CC(C)C)NC(=O)[C@H](CC(C)C)NC(=O)[C@@H](NC(=O)[C@@H](NC(=O)[C@H](C)NC(=O)[C@H](CCSC)NC(=O)[C@H](CC(N)=O)NC(=O)[C@H](CCCCN)NC(=O)[C@H](C)NC(=O)[C@@H](NC(=O)[C@H](CC(N)=O)NC(=O)[C@H](CCCCN)NC(=O)[C@H](C)NC(=O)[C@@H](NC(=O)[C@H](CC(=O)O)NC(=O)[C@H](CCSC)NC(=O)[C@H](Cc2ccccc2)NC(=O)CN)[C@@H](C)O)C(C)C)C(C)C)[C@@H](C)O)CSSC[C@@H](C(=O)O)NC(=O)[C@H](C)NC(=O)[C@H](CCCCN)NC(=O)[C@H]([C@@H](C)O)NC1=O [GFMDTAKNVAKNMAVTLLDNLKCKITKAC] | 2.39 (≈ 7.5 µg/mL) | 2.39 (≈ 7.5 µg/mL) | 1.21 (≈ 3.8 µg/mL) | 1.21 (≈ 3.8 µg/mL) | – | – | – | – | – |
| CC[C@H](C)[C@H](NC(=O)[C@H](CCCCN)NC(=O)[C@H](CO)NC(=O)[C@H](Cc1c[nH]c2ccccc12)NC(=O)[C@H](CCSC)NC(=O)CN)C(=O)N[C@@H](CC(C)C)C(=O)NCC(=O)N[C@@H](Cc1cnc[nH]1)C(=O)N[C@@H](CC(C)C)C(N)=O [GMWSKILGHL] | – | – | – | – | ≥ 100 | > 100 | > 100 | 22.5 (≈ 25.7 µg/mL) | – |
| CC[C@H](C)[C@H](NC(=O)[C@H](Cc1cnc[nH]1)NC(=O)[C@H](CCCCN)NC(=O)[C@H](CC(C)C)NC(=O)[C@H](CC(C)C)NC(=O)[C@H](CO)NC(=O)[C@H](CCSC)NC(=O)[C@H](Cc1c[nH]c2ccccc12)NC(=O)[C@H](CCCCN)NC(=O)[C@@H](N)CCCCN)C(=O)N[C@@H](CC(C)C)C(=O)N[C@@H](CCCCN)C(N)=O [KKWMSLLKHILK] | – | – | – | – | 3 (≈ 4.57 µg/mL) | 25 (≈ 38.1 µg/mL) | 28.3 (≈ 43.1 µg/mL) | 1.1 (≈ 1.68 µg/mL) | – |
| CC[C@H](C)[C@H](NC(=O)[C@H](CO)NC(=O)[C@H](C)NC(=O)[C@@H](NC(=O)[C@H](CCCCN)NC(=O)[C@H](CCCCN)NC(=O)[C@@H](N)Cc1c[nH]c2ccccc12)[C@@H](C)CC)C(=O)NCC(=O)N[C@@H](CCCCN)C(=O)N[C@@H](CCC(=O)O)C(=O)N[C@H](C(=O)N[C@@H](CC(C)C)C(=O)N[C@@H](CCCCN)C(=O)N[C@@H](C)C(=O)N[C@@H](CC(C)C)C(N)=O)C(C)C [WKKIASIGKEVLKAL] | – | – | – | – | – | – | – | – | MIC (Escherichia coli): 62 µM (≈ 104 µg/mL); MIC (Bacillus subtilis): ≥ 125 µM |

More lines, main results first:

| MIC [1] [µM] | MIC [2] [µM] | MIC [3] [µM] | MIC [4] [µM] | MIC (Escherichia coli B) [µM] | MIC (Pseudomonas aeruginosa) [µM] | MIC (Staphylococcus aureus) [µM] | MIC (Bacillus subtilis 168) [µM] | Structure (SMILES) | also measured |
| --- | --- | --- | --- | --- | --- | --- | --- | --- | --- |
| – | – | – | – | 1.1 (≈ 1.91 µg/mL) | 23.3 (≈ 40.5 µg/mL) | 19.7 (≈ 34.2 µg/mL) | 0.7 (≈ 1.22 µg/mL) | CC[C@H](C)[C@H](NC(=O)[C@H](CCCCN)NC(=O)[C@H](CCCCN)NC(=O)[C@H](Cc1c[nH]c2ccccc12)NC(=O)[C@@H](NC(=O)[C@@H](N)CC(N)=O)C(C)C)C(=O)N[C@@H](CC(C)C)C(=O)NCC(=O)N[C@@H](CCCCN)C(=O)N[C@H](C(=O)N[C@H](C(=O)N[C@@H](CCCCN)C(=O)N[C@H](C(=O)N[C@@H](C)C(=O)N[C@@H](CCCCN)C(N)=O)C(C)C)[C@@H](C)CC)[C@@H](C)CC [NVWKKILGKIIKVAK] | – |
| – | 7.11 (≈ 19.8 µg/mL) | 0.422 (≈ 1.17 µg/mL) | 0.211 (≈ 0.586 µg/mL) | – | – | – | – | CC[C@H](C)[C@H](NC(=O)[C@H](C)NC(=O)[C@H](CCCN=C(N)N)NC(=O)[C@H](Cc1ccc(O)cc1)NC(=O)[C@H](CC(C)C)NC(=O)[C@H](CC(N)=O)NC(=O)[C@H](Cc1ccc(O)cc1)NC(=O)CNC(=O)[C@H](C)NC(=O)[C@@H](NC(=O)[C@@H](NC(=O)[C@@H](NC(=O)[C@H](CCCN=C(N)N)NC(=O)[C@@H](NC(=O)[C@@H](NC(=O)[C@@H](NC(=O)[C@@H]1CCCN1C(=O)[C@H](Cc1c[nH]c2ccccc12)NC(=O)[C@H](Cc1ccccc1)NC(=O)[C@@H](N)CCCN=C(N)N)C(C)C)C(C)C)[C@@H](C)CC)[C@@H](C)O)C(C)C)C(C)C)C(=O)N[C@@H](CCCCN)C(=O)N[C@@H](CCCCN)C(=O)N[C@@H](CCCCN)C(=O)O [RFWPVVIRTVVAGYNLYRAIKKK] | MIC (Bacillus subtilis): 2.53 µM (≈ 7.03 µg/mL) |
| – | – | – | – | 0.7 (≈ 1.23 µg/mL) | 22.5 (≈ 39.4 µg/mL) | 4.3 (≈ 7.53 µg/mL) | 0.7 (≈ 1.23 µg/mL) | CC[C@H](C)[C@H](NC(=O)[C@H](CCCCN)NC(=O)[C@H](CCCCN)NC(=O)[C@H](Cc1c[nH]c2ccccc12)NC(=O)[C@H](CC(N)=O)NC(=O)[C@@H](N)C(C)C)C(=O)N[C@@H](CC(C)C)C(=O)N[C@@H](C)C(=O)N[C@@H](CCCCN)C(=O)N[C@H](C(=O)N[C@H](C(=O)N[C@@H](CCCCN)C(=O)N[C@H](C(=O)N[C@@H](C)C(=O)N[C@@H](CCCCN)C(N)=O)C(C)C)[C@@H](C)CC)[C@@H](C)CC [VNWKKILAKIIKVAK] | – |
| – | – | – | – | 1.4 (≈ 2.49 µg/mL) | 27.1 (≈ 48.2 µg/mL) | 2.2 (≈ 3.91 µg/mL) | 0.6 (≈ 1.07 µg/mL) | CC[C@H](C)[C@H](NC(=O)[C@H](CCCCN)NC(=O)[C@H](CCCCN)NC(=O)[C@H](Cc1c[nH]c2ccccc12)NC(=O)[C@H](CC(N)=O)NC(=O)[C@@H](N)C(C)C)C(=O)N[C@@H](CC(C)C)C(=O)N[C@@H](C)C(=O)N[C@@H](CCCCN)C(=O)N[C@H](C(=O)N[C@H](C(=O)N[C@@H](CCCCN)C(=O)N[C@H](C(=O)N[C@H](C(=O)N[C@@H](CCCCN)C(N)=O)C(C)C)C(C)C)[C@@H](C)CC)[C@@H](C)CC [VNWKKILAKIIKVVK] | – |
